Data: BindingDB's records for patent US20230312550 (Astrazeneca, 2023)
Blank lines part the entries; values can stand above or below the molecule they belong to.

Experiments:
Dipeptidyl peptidase 2 = Dipeptidyl peptidase 2 (Homo sapiens, UniProt Q9UHL4); assay: hDPP7 Inhibition Assay
Method: Table 4: Compounds were tested in a biochemical inhibition assay using human dipeptidylpeptidase 7 (hDPP7) enzyme at 15 nM FAC (BPS Bioscience, #80070) and the substrate Ala-Pro-amino-methylcoumarin (BPS Bioscience, #80305) at 5 μM FAC. The enzymatic reactions were conducted in duplicate at rt for 30 min in 50 μL DPP assay buffer (BPS Bioscience, #80300). Compound solutions (in DMSO) at 10 CR, 3 fold dilution series were prepared in assay buffer ten-fold higher than the final concentration, and 5 μL of the dilution was added to a 50 μL reaction so that the highest compound concentration was 100 μM FAC and the concentration of DMSO was 1% in all wells. The plates were read on a Tecan Infinite M1000 microplate reader with excitation 340 nm and emission 460 nm. Data were analyzed in Graph Pad Prism. IC50 values were determined by plotting % inhibition versus log compound concentration and using a one site dose response model. Raw data signals were normalized using 1% DMSO as 0% control and no enzyme as 100% inhibitor control.

Prolyl endopeptidase FAP = target: T1, Prolyl endopeptidase FAP (Homo sapiens, UniProt Q12884); assay: hFAP Binding Assay; settings: for kon: read-out: kon (M-1-s-1)
T1 sequence (Q12884 whole entry): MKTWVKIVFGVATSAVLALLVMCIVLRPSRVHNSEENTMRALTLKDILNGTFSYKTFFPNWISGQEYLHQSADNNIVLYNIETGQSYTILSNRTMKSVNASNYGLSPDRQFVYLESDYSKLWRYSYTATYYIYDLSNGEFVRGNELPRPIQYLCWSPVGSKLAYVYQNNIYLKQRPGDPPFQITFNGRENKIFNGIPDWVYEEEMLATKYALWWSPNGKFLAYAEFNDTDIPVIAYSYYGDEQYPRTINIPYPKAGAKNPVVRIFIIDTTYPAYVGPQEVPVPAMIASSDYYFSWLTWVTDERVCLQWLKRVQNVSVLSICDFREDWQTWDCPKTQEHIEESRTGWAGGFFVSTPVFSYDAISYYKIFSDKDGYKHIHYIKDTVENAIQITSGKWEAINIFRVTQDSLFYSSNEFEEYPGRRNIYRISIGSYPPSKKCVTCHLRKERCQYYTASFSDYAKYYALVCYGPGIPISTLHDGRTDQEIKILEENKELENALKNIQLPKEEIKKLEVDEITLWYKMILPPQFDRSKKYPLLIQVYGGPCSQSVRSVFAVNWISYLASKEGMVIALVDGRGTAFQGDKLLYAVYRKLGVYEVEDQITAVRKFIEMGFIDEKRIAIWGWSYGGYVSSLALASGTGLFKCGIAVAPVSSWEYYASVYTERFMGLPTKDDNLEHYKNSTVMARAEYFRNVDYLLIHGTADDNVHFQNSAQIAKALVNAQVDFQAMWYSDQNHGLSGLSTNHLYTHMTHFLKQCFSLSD

SMILES: Cc1cc(N2CCOCC2)cc2c(C(=O)NCC(=O)N3CSC[C@H]3C#N)ccnc12 [US20230312550, Example 9]
- IC50 (Dipeptidyl peptidase 2): > 100 µM

SMILES: N#C[C@@H]1CSCN1C(=O)CNC(=O)c1ccnc2ccc(N3C[C@@H]4[C@H](C3)[C@H]4C(F)(F)F)cc12 [US20230312550, Example 208]
- koff (Prolyl endopeptidase FAP): 0.00026 s⁻¹
- kon (Prolyl endopeptidase FAP): 5.6e+06 M⁻¹ s⁻¹

SMILES: N#C[C@@H]1CSCN1C(=O)CNC(=O)c1ccnc2ccc(N3C4CCC3CC4)cc12 [US20230312550, Example 209]
- koff (Prolyl endopeptidase FAP): 4.2e-05 s⁻¹
- kon (Prolyl endopeptidase FAP): 3.2e+06 M⁻¹ s⁻¹

SMILES: Cc1nc(C)c(-c2ccc3nccc(C(=O)NCC(=O)N4CSC[C@H]4C#N)c3c2)o1 [US20230312550, Example 215]
- koff (Prolyl endopeptidase FAP): 0.00017 s⁻¹
- kon (Prolyl endopeptidase FAP): 1.8e+06 M⁻¹ s⁻¹

SMILES: Cc1noc(C)c1-c1ccc2nccc(C(=O)NCC(=O)N3CSC[C@H]3C#N)c2c1 [US20230312550, Example 216]
- koff (Prolyl endopeptidase FAP): 0.0009 s⁻¹
- kon (Prolyl endopeptidase FAP): 5.2e+06 M⁻¹ s⁻¹

SMILES: N#C[C@@H]1CSCN1C(=O)CNC(=O)c1ccnc2ccc(-n3ccnc3-c3ccccc3)cc12 [US20230312550, Example 217]
- koff (Prolyl endopeptidase FAP): 0.0013 s⁻¹
- kon (Prolyl endopeptidase FAP): 1.8e+06 M⁻¹ s⁻¹

SMILES: N#C[C@@H]1CSCN1C(=O)CNC(=O)c1ccnc2ccc(-n3ccc(-c4ccccc4)c3)cc12 [US20230312550, Example 218]
- koff (Prolyl endopeptidase FAP): 0.00032 s⁻¹
- kon (Prolyl endopeptidase FAP): 670000 M⁻¹ s⁻¹

SMILES: N#C[C@@H]1CSCN1C(=O)CNC(=O)c1ccnc2ccc(-n3ccc4c3CCCC4)cc12 [US20230312550, Example 219]
- koff (Prolyl endopeptidase FAP): 0.0002 s⁻¹
- kon (Prolyl endopeptidase FAP): 2.4e+06 M⁻¹ s⁻¹

SMILES: N#C[C@@H]1CSCN1C(=O)CNC(=O)c1ccnc2ccc(N3CCC(F)(c4ccccc4)CC3)cc12 [US20230312550, Example 223]
- koff (Prolyl endopeptidase FAP): 2.6e-05 s⁻¹
- kon (Prolyl endopeptidase FAP): 2.5e+06 M⁻¹ s⁻¹

SMILES: N#C[C@@H]1CSCN1C(=O)CNC(=O)c1ccnc2ccc(N3CCC4(CC3)COC4)cc12 [US20230312550, Example 229]
- koff (Prolyl endopeptidase FAP): 2.6e-05 s⁻¹
- kon (Prolyl endopeptidase FAP): 2.4e+06 M⁻¹ s⁻¹

Now from value to molecule:

- koff (Prolyl endopeptidase FAP): 0.00011 s⁻¹
- kon (Prolyl endopeptidase FAP): 2.9e+06 M⁻¹ s⁻¹
SMILES: C[C@]1(F)CCN(c2ccc3nccc(C(=O)NCC(=O)N4CSC[C@H]4C#N)c3c2)C1 [US20230312550, Example 198]

- koff (Prolyl endopeptidase FAP): 0.00026 s⁻¹
- kon (Prolyl endopeptidase FAP): 2.3e+06 M⁻¹ s⁻¹
SMILES: N#C[C@@H]1CSCN1C(=O)CNC(=O)c1ccnc2ccc(N3CCC[C@@H]3C3CC3)cc12 [US20230312550, Example 199]

- koff (Prolyl endopeptidase FAP): 0.00023 s⁻¹
- kon (Prolyl endopeptidase FAP): 2.5e+06 M⁻¹ s⁻¹
SMILES: N#C[C@@H]1CSCN1C(=O)CNC(=O)c1ccnc2ccc(N3CCC[C@H]3C3CC3)cc12 [US20230312550, Example 200]

- koff (Prolyl endopeptidase FAP): 7e-05 s⁻¹
- kon (Prolyl endopeptidase FAP): 1.6e+06 M⁻¹ s⁻¹
SMILES: C[C@@H]1CCN(c2ccc3nccc(C(=O)NCC(=O)N4CSC[C@H]4C#N)c3c2)C1=O [US20230312550, Example 202]

- koff (Prolyl endopeptidase FAP): 6.3e-05 s⁻¹
- kon (Prolyl endopeptidase FAP): 440000 M⁻¹ s⁻¹
SMILES: C[C@H]1CCCN(c2ccc3nccc(C(=O)NCC(=O)N4CSC[C@H]4C#N)c3c2)C1=O [US20230312550, Example 203]

- koff (Prolyl endopeptidase FAP): 5.8e-05 s⁻¹
- kon (Prolyl endopeptidase FAP): 850000 M⁻¹ s⁻¹
SMILES: C[C@@H]1CCCN(c2ccc3nccc(C(=O)NCC(=O)N4CSC[C@H]4C#N)c3c2)C1=O [US20230312550, Example 204]

- koff (Prolyl endopeptidase FAP): 5.3e-05 s⁻¹
- kon (Prolyl endopeptidase FAP): 4.6e+06 M⁻¹ s⁻¹
SMILES: CO[C@H]1CCN(c2ccc3nccc(C(=O)NCC(=O)N4CSC[C@H]4C#N)c3c2)C1 [US20230312550, Example 207]

- koff (Prolyl endopeptidase FAP): 0.0002 s⁻¹
- kon (Prolyl endopeptidase FAP): 5.9e+06 M⁻¹ s⁻¹
SMILES: C[C@@H]1CCCN1c1ccc2nccc(C(=O)NCC(=O)N3CSC[C@H]3C#N)c2c1 [US20230312550, Example 211]

- koff (Prolyl endopeptidase FAP): 0.00034 s⁻¹
- kon (Prolyl endopeptidase FAP): 3.3e+06 M⁻¹ s⁻¹
SMILES: COC[C@@H]1CCCN1c1ccc2nccc(C(=O)NCC(=O)N3CSC[C@H]3C#N)c2c1 [US20230312550, Example 212]

- koff (Prolyl endopeptidase FAP): 0.00017 s⁻¹
- kon (Prolyl endopeptidase FAP): 4.4e+06 M⁻¹ s⁻¹
SMILES: N#C[C@@H]1CSCN1C(=O)CNC(=O)c1ccnc2ccc(N3C[C@H](F)[C@@H](F)C3)cc12 [US20230312550, Example 213]

- koff (Prolyl endopeptidase FAP): 9.2e-05 s⁻¹
- kon (Prolyl endopeptidase FAP): 2.9e+06 M⁻¹ s⁻¹
SMILES: N#C[C@@H]1CSCN1C(=O)CNC(=O)c1ccnc2ccc(N3C[C@@H](F)[C@H](F)C3)cc12 [US20230312550, Example 214]

- koff (Prolyl endopeptidase FAP): 6.8e-05 s⁻¹
- kon (Prolyl endopeptidase FAP): 3e+06 M⁻¹ s⁻¹
SMILES: N#C[C@@H]1CSCN1C(=O)CNC(=O)c1ccnc2ccc(N3C[C@H](O)C(F)(F)C3)cc12 [US20230312550, Example 224]
